Experiments:
Tetrahymena pyriformis = experiment: 48 h IGC50 (-log10 mol/L); higher = more toxic
Pimephales promelas = experiment: 96 h LC50 (-log10 mol/L); higher = more toxic

Row | Compound | 48 h IGC50 (-log10 mol/L) (Tetrahymena pyriformis) | 96 h LC50 (-log10 mol/L) (Pimephales promelas)
1 | Oc1ccc(Cl)cc1Cc1cc(Cl)ccc1O | 6.09 | 5.94
2 | Brc1nc(Br)c(Br)[nH]1 | 4.43 | 4.7
3 | CCCCCC(=O)OCC | 3.06 | 4.21
4 | CCCC(C)=O | 1.78 | 1.84
5 | C=C(C)C(=O)OCc1ccccc1 | 3.65 | 4.58
6 | CCOC(=O)CC(=O)OCC | 2 | 4.02
7 | Brc1ccc(Br)cc1 | 3.68 | 5.28
8 | O=C(c1ccccc1)c1ccncc1 | 2.91 | 3.25
9 | CC(C)=NO | 1.75 | 2.12
10 | CCOc1ccc(N)c([N+](=O)[O-])c1 | 3.76 | 3.85
11 | Cc1ccc([N+](=O)[O-])c(O)c1 | 3.59 | 3.51
12 | O=Cc1ccc(Cl)cc1 | 3.4 | 4.8
13 | NC(=O)c1ccc(Cl)cc1Cl | 2.64 | 3.3
14 | CCOC(=O)C(Cc1ccccc1)C(=O)OCC | 3.71 | 4.66
15 | O=Cc1ccccc1[N+](=O)[O-] | 3.17 | 4.02
16 | CC(O)CCl (stereo not drawn) | 1.51 | 2.59
17 | C=CC(N)=O | 2.19 | 2.79
18 | O=[N+]([O-])c1cccc2ccccc12 | 4 | 4.53
19 | CC(=O)CCC=C(C)C | 2.55 | 3.17
20 | C=COC(C)=O | 2.14 | 3.57
21 | CCOc1ccc(C=O)cc1 | 3.07 | 3.74

Row | Compound | 48 h IGC50 (-log10 mol/L) (Tetrahymena pyriformis) | 96 h LC50 (-log10 mol/L) (Pimephales promelas)
22 | CC(O)CO (stereo not drawn) | 0.49 | 0.349
23 | N#CCC#N | 3.22 | 5.07
24 | O=C(O)CCCCC(=O)O | 2.39 | 3.18
25 | Oc1c(I)cc(I)cc1I | 5.67 | 5.59
26 | CN(C)c1ccccn1 | 2.45 | 2.98
27 | CCCCOC(=O)/C=C/C(=O)OCCCC | 4.49 | 5.52
28 | N#Cc1ccc([N+](=O)[O-])cc1 | 3.57 | 3.78
29 | COC(=O)c1ccc(Cl)cc1[N+](=O)[O-] | 3.82 | 3.9
30 | Oc1cccc(O)c1 | 2.35 | 3.3
31 | O=C(c1ccc(Br)cc1)c1cccnc1 | 3.82 | 4.11
32 | C=CCC(O)C=C (stereo not drawn) | 3.25 | 3.41
33 | Cc1ccc(C)c(C)c1 | 3.78 | 4.19
34 | C=CC(=O)OC1CCCCC1 | 3.76 | 5.02
35 | OCC(Cl)(Cl)Cl | 2.54 | 2.82
36 | CC=NO | 1.39 | 2.89
37 | Cc1cc([N+](=O)[O-])ccc1N | 3.49 | 3.24
38 | CCCCCCCCCCCC(C)=O | 5.12 | 5.74
39 | CCCCCCCCN | 3.35 | 4.4
40 | CC(=O)Nc1cccc(O)c1 | 2.84 | 2.13
41 | O=Cc1cc(Cl)ccc1O | 4.01 | 5.31
42 | Cc1cccc(O)c1[N+](=O)[O-] | 3.61 | 3.52

Row | Compound | 48 h IGC50 (-log10 mol/L) (Tetrahymena pyriformis) | 96 h LC50 (-log10 mol/L) (Pimephales promelas)
43 | CCOC(=O)c1ccc(N)cc1 | 3.7 | 3.67
44 | c1ccccc1 | 2.88 | 3.44
45 | Oc1ccccc1O | 3.75 | 4.29
46 | CCNCc1ccccc1 | 3.22 | 3.37
47 | N#CCCl | 3.85 | 4.75
48 | Nc1ccc(Br)cc1 | 4.01 | 3.56
49 | CN(C)c1ccc(/C=C/C=O)cc1 | 3.52 | 4.47
50 | Cc1cc(C)c(C#N)c(=O)[nH]1 | 2.3 | 2.98
51 | NC(=O)c1ccccc1N | 2.13 | 2.54
52 | Oc1ccc(Oc2ccccc2)cc1 | 4.36 | 4.58
53 | O=[N+]([O-])c1cccc(Cl)c1 | 3.73 | 3.93
54 | CCCCCCBr | 3.94 | 4.68
55 | O=[N+]([O-])c1ccc(Oc2ccccc2)cc1 | 4.58 | 4.91
56 | c1ccc2ncccc2c1 | 3.09 | 3.45
57 | O=Cc1ccc(Cl)cc1Cl | 4.04 | 4.99
58 | CC(C)c1cccc(C(C)C)c1N | 3.76 | 4.1
59 | CCCCC(CC)CO (stereo not drawn) | 3.17 | 3.66
60 | CCCCCCCCC(C)=O | 3.58 | 4.51
61 | CCCCOC(=O)CCC | 3.52 | 4.09
62 | COc1ccc(C(C)=O)c(O)c1 | 3.55 | 3.38
63 | O/N=C/c1ccccc1O | 3.25 | 4.63

Row | Compound | 48 h IGC50 (-log10 mol/L) (Tetrahymena pyriformis) | 96 h LC50 (-log10 mol/L) (Pimephales promelas)
64 | CCN(CC)c1ccccc1 | 3.66 | 3.96
65 | CCCC=O | 2.62 | 3.65
66 | N#Cc1cccc([N+](=O)[O-])c1 | 3.45 | 3.39
67 | CCOP(=O)(Cc1ccccc1)OCC | 2.57 | 2.83
68 | O=Cc1ccc([N+](=O)[O-])cc1 | 3.2 | 4.17
69 | Cc1ccc(N)cc1N | 2.34 | 1.94
70 | Cc1c[nH]c2ccccc12 | 3.37 | 4.17
71 | COC(C)=O | 1.41 | 2.27
72 | CCCCCCCCC#N | 3.62 | 4.3
73 | CCCCCO | 1.97 | 2.22
74 | Cc1cc(Cl)nc(N)n1 | 2.53 | 3.01
75 | CCCCCCCCO | 3.58 | 3.98
76 | COCCN | 1.21 | 2.16
77 | CCCCCCCCc1ccc(N)cc1 | 5.43 | 6.23
78 | C=CCCl | 2.06 | 3.55
79 | CCOc1cc(C=O)ccc1O | 3.02 | 3.28
80 | CCC(C)N (stereo not drawn) | 2.33 | 2.42
81 | O=Cc1cccc([N+](=O)[O-])c1 | 3.11 | 4.42
82 | CCCCCCCCBr | 4.87 | 5.36
83 | CCOC(=O)CCCCCCCCC(=O)OCC | 4.35 | 4.98
84 | Cc1ccc(C)c(O)c1C | 3.28 | 4.22

— EPA's aquatic toxicity sets
